Assay results as given in paper PMC6832230, “Anti-Inflammatory Activity of Some Characteristic Constituents from the Vine Stems of Spatholobus suberectus” (Molecules, 2019).
“Also recorded” adds a separate entry of the source. Read-outs that look alike come from different tables or passages of the source.

Tests used:
[1] = test system: nitric oxide (NO) production in RAW264.7 macrophages stimulated by lipopolysaccharide; assay: NO inhibition assay (Griess method) in LPS-stimulated RAW264.7 cells; assay type: cell-based; conditions: for IC50: read-out: IC50 of inhibition of NO production; for SI (selectivity index): calculated from CC50 and IC50
Text: As a kind of pro-inflammatory mediator, NO plays a complex role and participates in many different kinds of inflammatory reactions, the level of which usually varies to different pathological degrees. The isolated novel compounds and 10 known ones in this research were chosen to evaluate the activity of inhibiting NO released by RAW264.7 cells after being stimulated by LPS.
The Griess method is generally used for determining NO concentration in anti-inflammatory experiments. The supernatant removed from the 96-well plates mentioned in Section 3.3.1 was interacted with Griess reagent (100 μL), and the absorbance was measured at 540 nm after 15 min. Two drugs, L-NIL and IND, were used as positive controls for comparative analysis in the test.
(§1) The IC50 values for NO inhibitory effects were calculated using SPSS v.20.0 (SPSS Inc., Chicago, IL, USA) and results were given as means ± SD. The mRNA expression levels were compared using variance analysis with GraphPad Prism 7.0 (GraphPad Software Inc., San Diego, CA, USA), and results were expressed as means ± SEM. All tests were carried out in triplicate.

IL-6 mRNA = assay: qPCR assay of IL-6 mRNA expression in LPS-stimulated RAW264.7 cells; assay type: cell-based; conditions: 24 h
Protocol: After measuring the concentration, 1 μg of total RNA was used to obtain complementary DNA (cDNA) with a qRT super mix (Bimake Co., Ltd., Houston, SD, USA). The amplification of cDNA was carried out on a Quantitative RT-PCR system (Agilent Technologies, Stratagene, Inc., Santa Clara, CA, USA) using SYBR green qPCR master mix (Bimake Co., Ltd., Houston, SD, USA). The thermal cycling conditions were as follows: 95 °C for 10 min, 40 cycles of 95 °C for 30 s, 55 °C for 1 min, and 72 °C for 1 min, followed by 95 °C for 1 min, 55 °C for 30 s, and 95 °C for 30 s. […] The mRNA expression levels were compared using variance analysis with GraphPad Prism 7.0 (GraphPad Software Inc., San Diego, CA, USA), and results were expressed as means ± SEM. All tests were carried out in triplicate.

IL-1β mRNA = assay: qPCR assay of IL-1β mRNA expression in LPS-stimulated RAW264.7 cells; assay type: cell-based; conditions: 24 h
Protocol: (§2) The RAW264.7 cells were seeded in 12-well plates at 3 × 10^4 cells/well; after being stimulated by LPS (1.0 μg/mL) and treated with two different concentrations of compounds for 24 h, the total RNA was extracted from the cells with Trizol reagent (Invitrogen, Thermo Fisher Scientific Inc., Waltham, MA, USA). After measuring the concentration, 1 μg of total RNA was used to obtain complementary DNA (cDNA) with a qRT super mix (Bimake Co., Ltd., Houston, SD, USA). The amplification of cDNA was carried out on a Quantitative RT-PCR system (Agilent Technologies, Stratagene, Inc., Santa Clara, CA, USA) using SYBR green qPCR master mix (Bimake Co., Ltd., Houston, SD, USA). The thermal cycling conditions were as follows: 95 °C for 10 min, 40 cycles of 95 °C for 30 s, 55 °C for 1 min, and 72 °C for 1 min, followed by 95 °C for 1 min, 55 °C for 30 s, and 95 °C for 30 s.
as §1

TNF-α mRNA = assay: qPCR assay of TNF-α mRNA expression in LPS-stimulated RAW264.7 cells; assay type: cell-based; conditions: 24 h
Protocol: as §2, §1

iNOS mRNA = assay: qPCR assay of iNOS mRNA expression in LPS-stimulated RAW264.7 cells; assay type: cell-based; conditions: 24 h
Protocol: as §2, §1

COX-2 mRNA = assay: qPCR assay of COX-2 mRNA expression in LPS-stimulated RAW264.7 cells; assay type: cell-based; conditions: 24 h
Protocol: as §2, §1

Cytotoxicity assay (MTT) = conditions: mouse
Protocol: (§3) The toxicities of different concentrations of compounds to cells were evaluated using the MTT assay [32, 33]. Firstly, the RAW 264.7 cells were maintained in DMEM with 10% FBS at 37 °C in a humid atmosphere containing 5% CO2. Then, the cells were seeded in 96-well plates (3 × 10^4 cells/well) after being passaged three times at a 1:3 split ratio. […] After being cultured for 24 h, the supernatant (100 μL) was transferred out and MTT (5 mg/mL, 20 μL for each well) was added, and the mixed solvent of 0.012 M HCl, 5% i-PrOH, and 10% sodium dodecyl sulfate (100 μL) was added 4 h later. The absorbance value was measured at 492 nm by a Thermo Multiskan MK3 microplate reader (Thermo-Labsystem, Franklin, MA, USA).

[2] = at 5 μM and 10 μM, LPS-stimulated RAW264.7 cells
[3] = LPS 1.0 μg/mL, RAW264.7 cells, concentration not given
[4] = Mus musculus, RAW264.7, 24 h, RAW264.7 cells, LPS 1 μg/mL, 24 h, Griess, n = 3, mean ± SD
[5] = RAW 264.7 cells, CC50 (median cytotoxic concentration), RAW 264.7 cells, MTT, 24 h, n = 3, >200: CC50 could not be obtained, cell survival rate >98% at 200–6.25 μM
[6] = RAW264.7 cells, LPS 1 μg/mL, 24 h, Griess, n = 3, mean ± SD
[7] = at 40 μM and 50 μM, LPS-stimulated RAW264.7 cells
[8] = at 20 μM and 30 μM, vs LPS group, RAW264.7 cells

Protocol for RAW 264.7 cells: as §3

Row | Molecule | SI (selectivity index) [1] | effect on mRNA expression of TNF-α (TNF-α mRNA; [3]) | effect on mRNA expression of iNOS (iNOS mRNA; [3]) | effect on mRNA expression of COX-2 (COX-2 mRNA; [3]) | IC50 [1, 4] [µM] | CC50 at 24 h (Cytotoxicity assay (MTT); [5]) [µM] | also measured
1 | COC1=CC(=O)C=C(OC)C1=O [Compound 1, 2,6-dimethoxy-1,4-benzoquinone] | 4.61 | can reduce | can reduce | can reduce | – | – | inhibition of NO production compared with L-NIL (in words) ([1]; LPS-stimulated RAW264.7 cells): potent inhibition; IC50 ([1]; Mus musculus, RAW264.7, 24 h): 5.69 ± 0.28 µM; effect on mRNA expression of IL-6 (IL-6 mRNA; [2]): markedly reduced; effect on mRNA expression of IL-1β (IL-1β mRNA; [2]): markedly reduced; effect on mRNA expression of TNF-α (TNF-α mRNA; [2]): markedly reduced; effect on mRNA expression of iNOS (iNOS mRNA; [2]): markedly reduced; effect on mRNA expression of COX-2 (COX-2 mRNA; [2]): markedly reduced; CC50 at 24 h (Cytotoxicity assay (MTT); RAW 264.7 cells): 26.2 ± 1.26 µM
2 | CCCCCC(=O)CCC(=O)OCCc1ccc(O)c(OC)c1 [Compound 5, Homovanillyl-4-oxo-nonanoate] | >4.36 | – | – | – | 45.9 ± 4.76 | > 200 | –
3 | 4,7,2′-trihydroxy-4′-methoxy-isoflavanol [Compound 3] | – | – | – | – | – | – | IC50 [1, 6]: 35.4 ± 2.92 µM; effect on mRNA expression of IL-1β (IL-1β mRNA; [7]): could inhibit; CC50 (RAW 264.7 cells): > 200 µM
4 | COc1c(O)ccc2c1OC[C@H](c1cc3c(cc1O)OCO3)[C@H]2O [Compound 2, (3S,4R)-7,2′-dihydroxy-8-methoxy-4′,5′-methylenedioxy-isoflavan-4-ol] | >4.32 | – | – | – | 46.3 ± 5.83 | > 200 | –
5 | O=C(/C=C/c1ccc(O)cc1)c1ccc(O)cc1O [Compound 10, isoliquiritigenin] | 19.68 | can reduce; also recorded: significantly downregulate | can reduce | can reduce | 6.78 ± 0.59 | 133 ± 2.11 | –
6 | O=c1c(-c2ccc(O)cc2)coc2cc(O[C@@H]3O[C@H](CO)[C@@H](O)[C@H](O)[C@H]3O)cc(O)c12 [Compound 13, genistin] | – | could not inhibit | could not inhibit | could not inhibit | 36.4 ± 2.47 | > 200 | effect on mRNA expression of IL-1β (IL-1β mRNA; [3]): declined sharply
7 | O=C1C[C@@H](c2ccc(O)cc2)Oc2cc(O)ccc21 [Compound 8, liquiritigenin] | 19.25 | significantly downregulate | – | – | 16.3 ± 4.45 | > 200 | –
8 | O=c1c(-c2ccc(O)cc2)coc2cc(O)cc(O)c12 [Compound 9, genistein] | 210.84 | can reduce | can reduce | can reduce | 16.9 ± 3.39 | – | effect on mRNA expression of TNF-α (TNF-α mRNA; [8]): strikingly downregulated; effect on mRNA expression of iNOS (iNOS mRNA; [8]): strikingly downregulated; effect on mRNA expression of COX-2 (COX-2 mRNA; [8]): strikingly downregulated; CC50 at 24 h (Cytotoxicity assay (MTT)): > 200 µM
9 | COc1ccc([C@@H]2COc3cc(O)ccc3C2)c(O[C@@H]2O[C@H](CO)[C@@H](O)[C@H](O)[C@H]2O)c1 [Compound 15, (3R)-vestitol-2′-O-β-D-glucopyranoside] | <1.98 | – | – | – | > 200 | > 200 | –
10 | COc1ccc(-c2coc3cc(O)ccc3c2=O)cc1 [Compound 11, formononetin] | 4.88 | – | notably downregulated | notably downregulated | 21.1 ± 4.8 | 103 ± 9.56 | –
11 | COc1ccc(C2COc3cc(OC4OC(CO)C(O)C(O)C4O)ccc3C2O)c(O)c1 [Compound 14, (3S,4R)-4,2′-dihydroxy-4′-methoxy-isoflavanol-7-glucopyranoside] | 5.86 | – | – | – | 123 ± 9.92 | > 200 | –
12 | COc1ccc(-c2cc3cc(O)c(O)cc3oc2=O)c(OC)c1OC [Compound 6, 3-(2′,3′,4′-trimethoxyphenyl)-6,7-dihydroxycoumarin] | 24.81 | can reduce | can reduce | can reduce | 28.3 | > 200 | IC50 [1, 6]: 28.3 ± 6.44 µM; effect on mRNA expression of IL-1β (IL-1β mRNA; [8]): reduced significantly; effect on mRNA expression of TNF-α (TNF-α mRNA; [8]): reduced significantly; effect on mRNA expression of iNOS (iNOS mRNA; [8]): reduced significantly
13 | O=c1c(-c2ccc(O)cc2)coc2cc(O)ccc12 [Compound 12, daidzein] | 11.64 | – | – | – | 35.5 ± 2.69 | > 200 | effect on mRNA expression of IL-6 (IL-6 mRNA; [3]): inhibition; effect on mRNA expression of IL-1β (IL-1β mRNA; [3]): inhibition
14 | Oc1ccc2c(c1)OC[C@H](c1cc3c(cc1O)OCO3)[C@H]2O [Compound 4, (3S,4R)-7,2′-dihydroxy-4′,5′-methylenedioxy-isoflavan-4-ol] | 7.50 | – | – | – | 40.1 ± 6.94 | > 200 | effect on mRNA expression of IL-1β (IL-1β mRNA; [7]): could inhibit
15 | COc1ccc2c(c1)c(CC(=O)O)c(C)n2C(=O)c1ccc(Cl)cc1 [IND, indomethacin, reference compound] | 11.43 | – | – | – | 55.4 ± 3.71 | 633 ± 75.1 | –
16 | CC(=N)NCCCC[C@H](N)C(=O)O [L-NIL, L-N^6-(1-iminoethyl)-lysine, reference compound] | >10.48 | – | – | – | – | > 200 | IC50 ([1]; Mus musculus, RAW264.7, 24 h): 19.1 ± 1.18 µM
17 | COc1ccc(-c2coc3cc([O-])ccc3c2=O)cc1.[Na+] [Compound 7, formononetin sodium] | 14.73 | negate the effect | negate the effect | – | – | – | IC50 [1, 6]: 22.8 ± 0.55 µM; effect on mRNA expression of IL-6 (IL-6 mRNA; [3]): negate the effect; effect on mRNA expression of IL-1β (IL-1β mRNA; [3]): negate the effect
